This passage reports IC50, melting point and CC50 results from US10597390B2, “Indoles for use in influenza virus infection” (Janssen Sciences Ireland UC, priority 2014, dated 2020).

The structures appear in SMILES notation. Bounds are passed on as bounds.

The test system of data set [1] is influenza virus A/Taiwan/1/86 (H1N1). The data set is described as follows: organism not typed. The data set is classed as cell-based. The conditions noted are these: MDCK, 72 h, CPE in MDCK cells, three days post-virus exposure, ATPlite. A general note: In ATP-based viability assays light output follows the ATP content of the culture.
The next data set is described as follows: in vitro. The conditions noted are these: dog, TOX MDCK CC50.

In the case of `CN1CCC[C@@H]1C(=O)N[C@@H]1CCC[C@H](Nc2nc(-c3c[nH]c4c(F)cc(Cl)cc34)ncc2F)C1` [Compound 62], the melting point (as a rule, the temperature, or range, at which the solid turns liquid) was determined as 196.5 °C. For the same compound, in data set [1], the concentration for half-maximal inhibition (IC50) (as a rule, the concentration that inhibits the measured activity by half) turned out to be 730 nM. Also, the CC50 (commonly the concentration giving 50% cytotoxicity) at 3 days in “in vitro” was found to be 6900 nM.
For `CC(C)(c1ccccn1)C(CC(=O)O)Nc1nc(-c2c[nH]c3c(F)cc(F)cc23)c(C#N)cc1F` (stereo not drawn) [Compound 237, 3-((5-cyano-6-(5,7-difluoro-1H-indol-3-yl)-3-fluoropyridin-2-yl)amino)-4-methyl-4-(pyridin-2-yl)pentanoic Acid] the same measures were 230.8 °C, 3 nM and 400 nM.
With `Cc1cnc(C(=O)N[C@@H]2CCC[C@H](Nc3nc(-c4c[nH]c5c(F)cc(F)cc45)ncc3F)C2)cn1` [Compound 103], the melting point was determined as 215 °C. Moreover, in data set [1], the IC50 was 49 nM. The compound also showed a CC50 at 3 days in the data set “in vitro” of 6600 nM.
The like results for `Nc1nccc(C(=O)N[C@@H]2CCC[C@H](Nc3nc(-c4c[nH]c5c(F)cc(Cl)cc45)ncc3F)C2)n1` [Compound 65] were, in that order, 261.7 °C, 3 nM and above 25000 nM.
The like results for `O=C(N[C@@H]1CCC[C@H](Nc2nc(-c3c[nH]c4c(F)cc(Cl)cc34)ncc2F)C1)c1ncc(F)cc1F` [Compound 55] were, in that order, above 300 °C, 25 nM and 6600 nM.
The like results for `C=CCC(C)(C)[C@@H](CC(=O)O)Nc1nc(-c2c[nH]c3c(F)cc(C)cc23)ncc1F` [Compound 243] were, in that order, below 280 °C, 46 nM and 600 nM.
For the compound `O=C(N[C@@H]1CCC[C@H](Nc2nc(-c3c[nH]c4c(F)cc(Cl)cc34)ncc2F)C1)c1cccc(O)n1` [Compound 35], the melting point was found to be 253.4 °C. Moreover, half-maximal inhibition in data set [1] (IC50) was put at 3 nM. Also, the 50% cytotoxic concentration (CC50) at 3 days in the data set “in vitro” is above 19400 nM.
The like results for `N#Cc1cc(F)c(N[C@@H]2CCC[C@@H](NC(=O)c3ccccn3)C2)nc1-c1c[nH]c2c(F)cc(F)cc12` [Compound 209] were, in that order, 257 °C, 3 nM and above 25000 nM.
Compound `Cc1c[nH]c(C(=O)N[C@@H]2CCC[C@H](Nc3nc(-c4c[nH]c5c(F)cc(F)cc45)ncc3F)C2)n1` [Compound 135] registered a melting point of 281.9 °C. In data set [1], this compound displayed an IC50 of 2 nM. Moreover, in the data set “in vitro”, half-maximal cytotoxicity (CC50 at 3 days) was put at 8400 nM.
`CN(C)c1ccnc(C(=O)N[C@@H]2CCC[C@H](Nc3nc(-c4c[nH]c5c(F)cc(Cl)cc45)ncc3F)C2)c1` [Compound 56]: the melting point came to 281.8 °C. Moreover, the IC50 in data set [1] worked out at 6 nM. This compound returned a CC50 at 3 days in the data set “in vitro” of 10700 nM.
`Cc1cn(C)nc1C(=O)N[C@@H]1CCC[C@H](Nc2nc(-c3c[nH]c4c(F)cc(F)cc34)ncc2F)C1` [Compound 136] returned a melting point of 265.1 °C. In data set [1], half-maximal inhibition (IC50) required 3 nM. In “in vitro”, this compound came in with a 50% cytotoxic concentration (CC50) at 3 days of 7600 nM.
The like results for `Cc1sc(N)nc1C(=O)N[C@@H]1CCC[C@H](Nc2nc(-c3c[nH]c4c(F)cc(F)cc34)ncc2F)C1` [Compound 150] were, in that order, 248.4 °C, 3 nM and 4800 nM.
For `Cn1cncc1C(=O)N[C@@H]1CCC[C@H](Nc2nc(-c3c[nH]c4c(F)cc(Cl)cc34)ncc2F)C1` [Compound 64] the same measures were 291.8 °C, 3 nM and above 25000 nM.
The compound `O=C(N[C@@H]1CCC[C@H](Nc2nc(-c3c[nH]c4c(F)cc(F)cc34)ncc2F)C1)[C@H]1CCCN1` [Compound 148] gave a melting point of 220.8 °C. This compound also showed an IC50 in data set [1] of 600 nM. The compound also yielded a 50% cytotoxic concentration (CC50) at 3 days in the data set “in vitro” of 10300 nM.
As to `Cn1nnnc1C(=O)N[C@@H]1CCC[C@H](Nc2nc(-c3c[nH]c4c(F)cc(F)cc34)ncc2F)C1` [Compound 152], the melting point is 250.3 °C. The IC50 in data set [1] was 40 nM. In “in vitro”, the CC50 at 3 days is above 5000 nM.
Turning to `Cn1ncnc1C(=O)N[C@@H]1CCC[C@H](Nc2nc(-c3c[nH]c4c(F)cc(Cl)cc34)ncc2F)C1` [Compound 75], the melting point was above 300 °C. This compound also displayed a concentration for half-maximal inhibition (IC50) in data set [1] of 12 nM. The compound also returned a half-maximal cytotoxic concentration (CC50) at 3 days in “in vitro” above 25000 nM.
For `Cc1ocnc1C(=O)N[C@@H]1CCC[C@H](Nc2nc(-c3c[nH]c4c(F)cc(Cl)cc34)ncc2F)C1` [Compound 48], the melting point came out at 253.4 °C. In data set [1], this compound registered an IC50 of 4 nM. Besides, in the data set “in vitro”, the CC50 at 3 days stood at 5000 nM.
The compound `Cc1cc(F)c2[nH]cc(-c3ncc(F)c(N[C@@H]4CCC[C@H](NC(=O)c5ccccn5)C4)n3)c2c1` (racemic) [Compound 21] had a melting point of 208 °C. The same compound had an IC50 in data set [1] of 4 nM. The same compound displayed a cytotoxic concentration (CC50) at 3 days in “in vitro” of 4800 nM.
As to `CC(C)(c1nccs1)C(CC(=O)O)Nc1nc(-c2c[nH]c3c(F)cc(F)cc23)c(C#N)cc1F` (stereo not drawn) [Compound 232], the melting point turned out to be 223.6 °C. In data set [1], this compound came in with an IC50 of 3 nM. This compound gave a CC50 at 3 days in the data set “in vitro” of 300 nM.
The like results for `Cc1cc(F)c2[nH]cc(-c3ncc(F)c(N[C@@H]4CCC[C@@H](NC(=O)c5cn(C)cn5)C4)n3)c2c1` (racemic) [Compound 196] were, in that order, above 250 °C, 21 nM and 10300 nM.
For `Nc1cc(C(=O)N[C@@H]2CCC[C@H](Nc3nc(-c4c[nH]c5c(F)cc(F)cc45)ncc3F)C2)ncn1` [Compound 124] the same measures were 228 °C, 7 nM and 11400 nM.
The like results for `O=C(N[C@@H]1CCC[C@H](Nc2nc(-c3c[nH]c4c(F)cc(Cl)cc34)ncc2F)C1)c1ncc[nH]1` [Compound 58] were, in that order, above 300 °C, 1 nM and 3500 nM.
As for `COc1cccc(C(=O)N[C@@H]2CCC[C@H](Nc3nc(-c4c[nH]c5c(F)cc(Cl)cc45)ncc3F)C2)n1` [Compound 31], the melting point was determined as 256.7 °C. Moreover, in data set [1], half-maximal inhibition (IC50) required 47 nM. This compound also returned a 50% cytotoxic concentration (CC50) at 3 days in the data set “in vitro” of 19900 nM.
In the case of `Cc1cc(F)c2[nH]cc(-c3nc(N[C@@H]4CCC[C@@H](NC(=O)c5nc(C)oc5C)C4)c(F)cc3C#N)c2c1` (racemic) [Compound 200], the melting point is above 250 °C. Also, in data set [1], it took 160 nM to reach half-maximal inhibition (IC50). The same compound had a half-maximal cytotoxic concentration (CC50) at 3 days in the data set “in vitro” above 25000 nM.
`O=C(N[C@H]1CCC[C@@H](Nc2nc(-c3c[nH]c4c(F)cc(F)cc34)ncc2F)C1)c1cncs1` [Compound 84] had a melting point of 295.2 °C. The compound further yielded a concentration for half-maximal inhibition (IC50) in data set [1] of 3 nM. This compound gave a 50% cytotoxic concentration (CC50) at 3 days in the data set “in vitro” above 25000 nM.
For `Cc1cc(C(=O)N[C@@H]2CCC[C@H](Nc3nc(-c4c[nH]c5c(F)cc(Cl)cc45)ncc3F)C2)on1` (racemic) [Compound 29] the same measures were 246.7 °C, 17 nM and 3400 nM.
As for `O=C(N[C@@H]1CCC[C@H](Nc2nc(-c3c[nH]c4c(F)cc(Cl)cc34)ncc2F)C1)c1nnn[nH]1` [Compound 81], the melting point stood at 275.1 °C. The half-maximal inhibitory concentration (IC50) in data set [1] is 39 nM. This compound came in with a half-maximal cytotoxic concentration (CC50) at 3 days in the data set “in vitro” above 25000 nM.
Turning to `Nc1nc(C(=O)N[C@@H]2CCC[C@H](Nc3nc(-c4c[nH]c5c(F)cc(F)cc45)ncc3F)C2)cs1` [Compound 145], the melting point stood at 178.1 °C. In addition, in data set [1], the half-inhibitory concentration (IC50) was 2 nM. The compound also displayed a half-maximal cytotoxic concentration (CC50) at 3 days in the data set “in vitro” of 6800 nM.
The like results for `COc1ccnc(C(=O)N[C@@H]2CCC[C@H](Nc3nc(-c4c[nH]c5c(F)cc(F)cc45)ncc3F)C2)c1` [Compound 105] were, in that order, 233.8 °C, 2 nM and 5600 nM.
For `Nc1cc(C(=O)N[C@@H]2CCC[C@H](Nc3nc(-c4c[nH]c5c(F)cc(Cl)cc45)ncc3F)C2)n[nH]1` [Compound 59] the same measures were 245.2 °C, 2 nM and 7800 nM.
The like results for `Cc1cc(C(=O)N[C@@H]2CCC[C@H](Nc3nc(-c4c[nH]c5c(F)cc(Cl)cc45)ncc3F)C2)n(C)n1` [Compound 41] were, in that order, 281.2 °C, 10 nM and 6000 nM.
Regarding `CN(C)C(=O)C(C)(C)C(CC(=O)O)Nc1nc(-c2c[nH]c3c(F)cc(F)cc23)ncc1F` (stereo not drawn) [Compound 251], the melting point was determined as 253 °C. In data set [1], this compound gave a half-inhibitory concentration (IC50) of 150 nM. In addition, the CC50 at 3 days in the data set “in vitro” is above 25000 nM.
On to `O=C(O)c1n[nH]nc1C(=O)N[C@@H]1CCC[C@H](Nc2nc(-c3c[nH]c4c(F)cc(F)cc34)ncc2F)C1` [Compound 147], for which the melting point was above 300 °C. Further, inhibition in data set [1] was half-maximal at 47 nM (IC50). In “in vitro”, this compound had a CC50 at 3 days above 25000 nM.
The compound `Cn1nnc(C(=O)N[C@@H]2CCC[C@H](Nc3nc(-c4c[nH]c5c(F)cc(F)cc45)ncc3F)C2)n1` [Compound 153] displayed a melting point of 230 °C. The IC50 in data set [1] was 20 nM. Also, the CC50 at 3 days in the data set “in vitro” is above 1000 nM.
For `CC[C@@]1(C(=O)O)CCCC[C@H]1Nc1nc(-c2c[nH]c3c(F)cc(F)cc23)c(C#N)cc1F` (relative stereo) [Compound 247, (trans)-2-((5-cyano-6-(5,7-difluoro-1H-indol-3-yl)-3-fluoropyridin-2-yl)-amino)-1-ethylcyclohexanecarboxylic Acid] the same measures were 254.9 °C, 50 nM and 400 nM.
The like results for `CCn1nccc1C(=O)N[C@@H]1CCC[C@H](Nc2nc(-c3c[nH]c4c(F)cc(F)cc34)ncc2F)C1` [Compound 115] were, in that order, 266.8 °C, 380 nM and above 25000 nM.
The like results for `Cc1cc(F)c2[nH]cc(-c3ncc(F)c(NC(CC(=O)O)C(C)(C)c4nccs4)n3)c2c1` (stereo not drawn) [Compound 233] were, in that order, 237.2 °C, 15 nM and 17300 nM.
`Cc1cc(F)c2[nH]cc(-c3ncc(F)c(N[C@H](CC(=O)O)C(C)(C)C)n3)c2c1` [Compound 168] showed a melting point of 132 °C. Also, the IC50 in data set [1] is above 25000 nM. The compound further yielded a CC50 at 3 days in “in vitro” of 10300 nM.
